Assay results: patent US11530210B2, “Substituted heteroaromatic pyrazolo-pyridines and their use as GLUN2B receptor modulators” (JANSSEN PHARMACEUTICA NV, priority 2019, dated 2022)

Tests used:
[1] = molecular target: T1, human GluN1/GluN2B NMDA receptors (Homo sapiens, UniProt Q13224); experiment: Calcium flux (FLIPR) assay on cloned human NR1/GluN2B ion channels expressed in mammalian cells (standard and HTS variants); format: cell-based; details: cells expressing human GluN1/GluN2B, glutamate and glycine co-agonists
T1 construct: expressed in transfected cells
Outline: (§1)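 Calcium influx read by FLIPR after co-agonist addition (glycine 10 μM, glutamate near EC40) following 5 min compound preincubation, with signal normalized to control wells.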

[2] = Liver microsomal stability (extraction ratio); format: in vitro ADME, mouse, rat, and human; details: test compound 1 μM, 0.5 mg/mL liver microsomes, NADPH 1 mM, 37° C.; ER = predicted hepatic clearance / species blood flow; species not given
Description: Protocol for Liver Microsomal Stability (Extraction Ratio)
Liver Microsomal Stability. Microsomal stability studies (Chrovian et al, “1H-Pyrrolo[3,2-b]pyridine GluN2B-Selective Negative Allosteric Modulators”. ACS Med Chem Lett. 2019 Jan. 10; 10(3):261-266) were conducted on a Biomek® FX Robotic Liquid Handling Workstation (Beckman Coulter, Brea, Calif.), which consists of a 96-channel pipette head, a 12-postion workstation deck, and a plate incubator. Test compounds (1 μm) were spiked in a reaction mix consisting of 100 mM potassium phosphate buffer (pH 7.4), 3 mM MgCl2, and 0.5 mg/mL liver microsomes from mouse, rat, and human (BD Gentest). The reaction was brought to 37° C. and initiated by adding NADPH to a final concentration of 1 mM. After mixing on the platedeck, 50 µL aliquots were excised from the reaction plate at 0, 5, 10, 20, 40, and 60 min and quenched with four volumes of acetonitrile spiked with […] of the internal standard phenytoin. Quenched plates were centrifuged at 5700 rpm for 10 min at 4° C., and supernatant was diluted 1:3 in water before LC/MS/MS analysis. The compound half-lives were derived from plots of the ln of percent remaining compound over time to determine the intrinsic clearance. The predicted hepatic clearance was derived from the intrinsic clearance value using equations from the well-stirred model (Current Drug Metabolism, 2008, 9, 940-951), where no correction was made plasma protein binding and the blood to plasma concentration ratio was assumed to be one.

[3] = molecular target: T2, human GluN1/GluN2B NMDA receptors (Homo sapiens, UniProt Q05586+Q13224); experiment: Calcium flux (FLIPR) assay on cloned human NR1/GluN2B ion channels expressed in mammalian cells (standard and HTS variants); format: cell-based; details: cells expressing human GluN1/GluN2B, glutamate and glycine co-agonists
T2 construct: expressed in transfected cells
Outline: as §1

T1 sequence (Q13224 27-1484, other chains not shown): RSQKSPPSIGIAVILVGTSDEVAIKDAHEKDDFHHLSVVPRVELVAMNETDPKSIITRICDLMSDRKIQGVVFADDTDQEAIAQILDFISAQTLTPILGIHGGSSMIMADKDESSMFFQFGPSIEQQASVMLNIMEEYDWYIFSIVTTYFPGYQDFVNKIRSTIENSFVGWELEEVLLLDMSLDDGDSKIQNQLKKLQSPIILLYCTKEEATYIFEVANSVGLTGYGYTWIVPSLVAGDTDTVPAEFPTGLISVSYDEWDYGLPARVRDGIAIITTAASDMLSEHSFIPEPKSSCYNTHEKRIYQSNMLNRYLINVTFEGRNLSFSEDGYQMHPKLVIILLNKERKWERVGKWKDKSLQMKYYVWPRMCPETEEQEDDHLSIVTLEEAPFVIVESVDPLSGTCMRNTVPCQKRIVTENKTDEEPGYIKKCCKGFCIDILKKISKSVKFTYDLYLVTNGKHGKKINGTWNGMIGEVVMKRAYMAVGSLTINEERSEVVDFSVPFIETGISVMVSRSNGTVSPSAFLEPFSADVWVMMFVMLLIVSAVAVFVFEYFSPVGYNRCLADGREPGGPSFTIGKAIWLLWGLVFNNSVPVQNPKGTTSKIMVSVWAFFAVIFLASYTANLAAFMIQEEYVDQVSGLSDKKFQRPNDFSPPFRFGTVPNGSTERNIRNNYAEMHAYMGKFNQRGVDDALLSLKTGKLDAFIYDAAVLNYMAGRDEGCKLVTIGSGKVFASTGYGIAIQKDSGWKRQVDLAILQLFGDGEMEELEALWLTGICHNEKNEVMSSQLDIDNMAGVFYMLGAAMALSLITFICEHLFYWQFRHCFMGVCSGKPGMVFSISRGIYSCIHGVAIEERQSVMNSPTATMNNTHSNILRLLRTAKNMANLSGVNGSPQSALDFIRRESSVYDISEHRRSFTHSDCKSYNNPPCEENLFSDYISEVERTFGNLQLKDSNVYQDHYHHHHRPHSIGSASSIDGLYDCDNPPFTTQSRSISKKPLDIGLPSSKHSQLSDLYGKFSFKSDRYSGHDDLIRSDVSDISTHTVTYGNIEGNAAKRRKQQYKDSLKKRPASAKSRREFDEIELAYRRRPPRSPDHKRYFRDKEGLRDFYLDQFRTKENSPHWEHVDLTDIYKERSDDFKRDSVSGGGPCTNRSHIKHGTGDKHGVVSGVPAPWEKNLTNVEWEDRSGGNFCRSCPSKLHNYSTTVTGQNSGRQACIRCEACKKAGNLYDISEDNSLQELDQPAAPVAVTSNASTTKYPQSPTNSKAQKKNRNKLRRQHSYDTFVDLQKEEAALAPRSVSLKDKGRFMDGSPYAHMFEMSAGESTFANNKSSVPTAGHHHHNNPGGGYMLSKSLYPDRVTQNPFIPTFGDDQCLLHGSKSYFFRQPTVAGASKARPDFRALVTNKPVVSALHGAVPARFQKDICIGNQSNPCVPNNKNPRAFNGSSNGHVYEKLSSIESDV
T2 sequence (Q13224 27-1484, other chains not shown): as above

With Cc1cnc(Cn2ncc3ncc(-c4ccc(F)c(C(F)F)c4)cc32)o1 [Example 8, 2-[[6-[3-(Difluoromethyl)-4-fluoro-phenyl]pyrazolo[4,3-b]pyridin-1-yl]methyl]-5-methyl-oxazole] the IC50 [1] was 28 nM and the “Extraction Ratio @ 1 μM” value [2] was 0.68.

For Cc1nnc(Cn2ncc3ncc(-c4ccc(F)c(C(F)F)c4)cc32)o1 [Example 10, 2-[[6-[3-(Difluoromethyl)-4-fluoro-phenyl]pyrazolo[4,3-b]pyridin-1-yl]methyl]-5-methyl-1,3,4-oxadiazole], the IC50 [1] was 19 nM and the “Extraction Ratio @ 1 μM” value [2] was 0.31.

Compound CC(F)(F)c1cccc(-c2cnc3cnn(Cc4cccnc4)c3c2)c1 [Example 12, 6-[3-(1,1-Difluoroethyl)phenyl]-1-(3-pyridylmethyl)pyrazolo[4,3-b]pyridine] has an IC50 [3] of 26 nM.

CC(F)(F)c1cc(-c2cnc3cnn(Cc4cn[nH]c4)c3c2)ccc1F [Example 40, 6-[3-(1,1-Difluoroethyl)-4-fluoro-phenyl]-1-(1H-pyrazol-4-ylmethyl)pyrazolo[4,3-b]pyridine] gave an IC50 [3] of 825 nM.

In the case of Cc1cc(Cn2ncc3ncc(-c4ccc(F)c(C(F)F)c4)cc32)on1 [Example 52, 5-[[6-[3-(Difluoromethyl)-4-fluoro-phenyl]pyrazolo[4,3-b]pyridin-1-yl]methyl]-3-methyl-isoxazole], the IC50 [1] is reported as 22 nM and the “Extraction Ratio @ 1 μM” value [2] is reported as 0.69.

With Cc1nnc(Cn2nc(F)c3ncc(-c4ccc(F)c(C(F)F)c4)cc32)o1 [Example 96, 2-[[6-[3-(Difluoromethyl)-4-fluoro-phenyl]-3-fluoro-pyrazolo[4,3-b]pyridin-1-yl]methyl]-5-methyl-1,3,4-oxadiazole] the IC50 [1] was 38 nM and the “Extraction Ratio @ 1 μM” value [2] was <0.298.

For Cc1nc(Cn2ncc3ncc(-c4ccc(F)c(C(F)F)c4)cc32)no1 [Example 97, 3-[[6-[3-(Difluoromethyl)-4-fluoro-phenyl]pyrazolo[4,3-b]pyridin-1-yl]methyl]-5-methyl-1,2,4-oxadiazole], the IC50 [1] was 41 nM and the “Extraction Ratio @ 1 μM” value [2] was 0.42.

In the case of Cc1nnc(Cn2ncc3ncc(-c4ccc(F)c(C(F)F)c4)cc32)s1 [Example 122, 2-[[6-[3-(Difluoromethyl)-4-fluoro-phenyl]pyrazolo[4,3-b]pyridin-1-yl]methyl]-5-methyl-1,3,4-thiadiazole], the IC50 [1] is reported as 18 nM and the “Extraction Ratio @ 1 μM” value [2] is reported as 0.60.

In the case of Fc1ccc(-c2cnc3cnn(Cc4cccnc4)c3c2)cc1C(F)F [Example 198, 6-[3-(Difluoromethyl)-4-fluoro-phenyl]-1-(3-pyridylmethyl)pyrazolo[4,3-b]pyridine], the IC50 [1] is reported as 8 nM and the “Extraction Ratio @ 1 μM” value [2] is reported as 0.65.

For Fc1cncc(Cn2ncc3ncc(-c4ccc(F)c(C(F)F)c4)cc32)c1 [Example 202, 6-[3-(Difluoromethyl)-4-fluoro-phenyl]-1-[(5-fluoro-3-pyridyl)methyl]pyrazolo[4,3-b]pyridine], the IC50 [1] was 14 nM and the “Extraction Ratio @ 1 μM” value [2] was 0.57.

In the case of Fc1ccc(-c2cnc3cnn(Cc4cccnn4)c3c2)cc1C(F)F [Example 261, 6-[3-(Difluoromethyl)-4-fluoro-phenyl]-1-(pyridazin-3-ylmethyl)pyrazolo[4,3-b]pyridine], the IC50 [1] is reported as 23 nM and the “Extraction Ratio @ 1 μM” value [2] is reported as <0.298.

Fc1ccc(-c2cnc3cnn(Cc4cnccn4)c3c2)cc1OC(F)F [Example 273, 6-[3-(Difluoromethoxy)-4-fluoro-phenyl]-1-(pyrazin-2-ylmethyl)pyrazolo[4,3-b]pyridine] showed an IC50 [1] of 320 nM.

With CC(F)(F)c1cccc(-c2cnc3cnn(Cc4cncnc4)c3c2)c1 [Example 274, 6-[3-(1,1-Difluoroethyl)phenyl]-1-(pyrimidin-5-ylmethyl)pyrazolo[4,3-b]pyridine] the IC50 [1] was 51 nM.

In the case of Fc1ccc(-c2cnc3cnn(Cc4cncnc4)c3c2)cc1C(F)F [Example 275, 6-[3-(Difluoromethyl)-4-fluoro-phenyl]-1-(pyrimidin-5-ylmethyl)pyrazolo[4,3-b]pyridine], the IC50 [1] is reported as 12 nM and the “Extraction Ratio @ 1 μM” value [2] is reported as 0.36.

Compound FC(F)(F)c1cccc(-c2cnc3cnn(Cc4cncnc4)c3c2)c1 [Example 276, 1-(Pyrimidin-5-ylmethyl)-6-[3-(trifluoromethyl)phenyl]pyrazolo[4,3-b]pyridine] has an IC50 [1] of 145 nM.

CC(F)(F)c1cc(-c2cnc3cnn(Cc4cncnc4)c3c2)ccc1F [Example 277, 6-[3-(1,1-Difluoroethyl)-4-fluoro-phenyl]-1-(pyrimidin-5-ylmethyl)pyrazolo[4,3-b]pyridine] showed an IC50 [1] of 65 nM.

Fc1ccc(-c2cnc3cnn(Cc4cncnc4)c3c2)cc1OC(F)F [Example 278, 6-[3-(Difluoromethoxy)-4-fluoro-phenyl]-1-(pyrimidin-5-ylmethyl)pyrazolo[4,3-b]pyridine] showed an IC50 [1] of 52 nM.

Compound FC(F)Oc1cc(-c2cnc3cnn(Cc4cncnc4)c3c2)ccc1Cl [Example 279, 6-[4-Chloro-3-(difluoromethoxy)phenyl]-1-(pyrimidin-5-ylmethyl)pyrazolo[4,3-b]pyridine] has an IC50 [1] of 90 nM.

Compound Cc1cc(Cn2ncc3ncc(-c4ccc(F)c(C(F)F)c4)cc32)ncn1 [Example 280, 6-[3-(Difluoromethyl)-4-fluoro-phenyl]-1-[(6-methylpyrimidin-4-yl)methyl]pyrazolo[4,3-b]pyridine] has an IC50 [1] of 226 nM.

With Cc1cc(Cn2ncc3ncc(-c4ccc(F)c(OC(F)F)c4)cc32)ncn1 [Example 281, 6-[3-(Difluoromethoxy)-4-fluoro-phenyl]-1-[(6-methylpyrimidin-4-yl)methyl]pyrazolo[4,3-b]pyridine] the IC50 [1] was 984 nM.

With Cc1nccc(Cn2ncc3ncc(-c4ccc(F)c(C(F)F)c4)cc32)n1 [Example 282, 6-[3-(Difluoromethyl)-4-fluoro-phenyl]-1-[(2-methylpyrimidin-4-yl)methyl]pyrazolo[4,3-b]pyridine] the IC50 [1] was 387 nM.

Work on Cc1nccc(Cn2ncc3ncc(-c4cccc(C(F)(F)F)c4)cc32)n1 [Example 283, 1-[(2-Methylpyrimidin-4-yl)methyl]-6-[3-(trifluoromethyl)phenyl]pyrazolo[4,3-b]pyridine] yielded an IC50 [1] of 3250 nM.

Compound Cc1nccc(Cn2ncc3ncc(-c4ccc(F)c(OC(F)F)c4)cc32)n1 [Example 284, 6-[3-(Difluoromethoxy)-4-fluoro-phenyl]-1-[(2-methylpyrimidin-4-yl)methyl]pyrazolo[4,3-b]pyridine] has an IC50 [1] of 942 nM.

For Cc1ncc(Cn2ncc3ncc(-c4ccc(F)c(F)c4)cc32)cn1 [Example 285, 6-(3,4-Difluorophenyl)-1-[(2-methylpyrimidin-5-yl)methyl]pyrazolo[4,3-b]pyridine], the IC50 [1] was > 10000 nM.

Compound Cc1ncc(Cn2ncc3ncc(-c4ccc(Cl)c(C)c4)cc32)cn1 [Example 286, 6-(4-Chloro-3-methyl-phenyl)-1-[(2-methylpyrimidin-5-yl)methyl]pyrazolo[4,3-b]pyridine] has an IC50 [1] of 3020 nM.

Work on Cc1cnc(Cn2ncc3ncc(-c4cccc(C(F)(F)F)c4)cc32)nc1 [Example 287, 1-[(5-Methylpyrimidin-2-yl)methyl]-6-[3-(trifluoromethyl)phenyl]pyrazolo[4,3-b]pyridine] yielded an IC50 [1] of 3240 nM.

In the case of COc1cc(Cn2ncc3ncc(-c4ccc(F)c(C(F)F)c4)cc32)ncn1 [Example 288, 6-[3-(Difluoromethyl)-4-fluoro-phenyl]-1-[(6-methoxypyrimidin-4-yl)methyl]pyrazolo[4,3-b]pyridine], the IC50 [1] is reported as 182 nM.

Work on COc1cc(Cn2ncc3ncc(-c4ccc(F)c(OC(F)F)c4)cc32)ncn1 [Example 289, 6-[3-(Difluoromethoxy)-4-fluoro-phenyl]-1-[(6-methoxypyrimidin-4-yl)methyl]pyrazolo[4,3-b]pyridine] yielded an IC50 [1] of 350 nM.

Work on COc1nccc(Cn2ncc3ncc(-c4ccc(F)c(C(F)F)c4)cc32)n1 [Example 290, 6-[3-(Difluoromethyl)-4-fluoro-phenyl]-1-[(2-methoxypyrimidin-4-yl)methyl]pyrazolo[4,3-b]pyridine] yielded an IC50 [1] of 320 nM.

COc1nccc(Cn2ncc3ncc(-c4ccc(F)c(OC(F)F)c4)cc32)n1 [Example 291, 6-[3-(Difluoromethoxy)-4-fluoro-phenyl]-1-[(2-methoxypyrimidin-4-yl)methyl]pyrazolo[4,3-b]pyridine] gave an IC50 [1] of 938 nM.

With OCc1nnc(Cn2ncc3ncc(-c4ccc(F)c(C(F)F)c4)cc32)o1 [Example 292, (5-((6-(3-(Difluoromethyl)-4-fluorophenyl)-1H-pyrazolo[4,3-b]pyridin-1-yl)methyl)-1,3,4-oxadiazol-2-yl)methanol] the IC50 [1] was 170 nM.

In the case of Cc1nnc(Cn2ncc3ncc(-c4ccc(F)c(C(=O)O)c4)cc32)o1 [Example 293, 2-Fluoro-5-(1-((5-methyl-1,3,4-oxadiazol-2-yl)methyl)-1H-pyrazolo[4,3-b]pyridin-6-yl)benzoic acid], the IC50 [1] is reported as > 10000 nM.
